Key:
[1] = biological target: T1, glucocorticoid receptor (GR) (Mus musculus, UniProt P06537); assay: In vivo transcriptional analysis (q-RT-PCR) of the three GR functions in mouse ears; parameters: species or system Balb/C mice; conditions: topical 18 hours, 1 nmole/cm^2
T1 construct: RNA transcripts were then extracted from mouse ears; from tissue; host or cells: ear skin of Balb/C mice (in vivo topical treatment)
T1 sequence (P06537 1-792): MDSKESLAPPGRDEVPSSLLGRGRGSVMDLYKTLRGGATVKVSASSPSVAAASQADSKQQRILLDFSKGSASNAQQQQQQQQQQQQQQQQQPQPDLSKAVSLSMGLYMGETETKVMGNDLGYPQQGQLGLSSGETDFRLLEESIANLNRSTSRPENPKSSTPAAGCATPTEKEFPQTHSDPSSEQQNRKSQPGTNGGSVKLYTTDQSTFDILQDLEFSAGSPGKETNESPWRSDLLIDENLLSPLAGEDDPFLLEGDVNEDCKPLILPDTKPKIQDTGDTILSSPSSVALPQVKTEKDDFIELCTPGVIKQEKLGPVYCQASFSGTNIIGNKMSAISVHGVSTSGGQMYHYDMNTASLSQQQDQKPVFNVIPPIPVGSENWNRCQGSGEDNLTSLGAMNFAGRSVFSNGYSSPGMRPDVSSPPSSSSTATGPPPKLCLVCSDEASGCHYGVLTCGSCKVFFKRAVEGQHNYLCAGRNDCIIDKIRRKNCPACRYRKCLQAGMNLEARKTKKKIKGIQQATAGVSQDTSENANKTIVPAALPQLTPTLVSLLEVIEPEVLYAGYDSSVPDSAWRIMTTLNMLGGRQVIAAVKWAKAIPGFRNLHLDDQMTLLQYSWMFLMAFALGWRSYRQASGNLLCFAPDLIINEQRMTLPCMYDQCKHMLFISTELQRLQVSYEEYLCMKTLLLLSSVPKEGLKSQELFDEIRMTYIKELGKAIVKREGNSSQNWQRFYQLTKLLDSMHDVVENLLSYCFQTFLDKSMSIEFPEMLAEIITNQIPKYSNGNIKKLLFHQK
Method: RNA transcripts were then extracted from mouse ears and the transcripts of 4 genes were analyzed by q-RT-PCR: • (i) the directly GR-transactivated gene of the mTOR inhibitor REDD1, • (ii) the GR-directly transrepressed gene of keratin 5 (K5) and • (iii) the GR-indirectly “tethered” transrepressed genes of interleukin-1β (IL-1β) and interleukin-6 (IL-6), both being activated in presence of 12-O-tetradecanoylphorbol-13-acetate (TPA). Results

corneal epithelial cells = conditions: in vitro; cited from earlier work
[2] = test system: experimental models of dry eye and postoperative inflammation; conditions: in vivo, cited from earlier work

For `Cc1ccc2c(NC[C@](O)(CC(C)(C)c3cc(F)cc4c3OCC4)C(F)(F)F)cccc2n1` [Mapracorat], the “GR functions induced (direct transactivation, direct transrepression, indirect tethered transrepression)” value [1] is given as “induces all three GR functions”, the “anti-inflammatory action in corneal epithelial cells challenged with osmotic stress” value (corneal epithelial cells) is given as “act as an anti-inflammatory agent” and the “side effects in intraocular pressure and body weight” value ([2]; vs dexamethasone) is given as “reduced side effects”. For the same compound, the “anti-inflammatory activity vs dexamethasone” value [2] was “comparable”.

Reference: patent US11179363B2, “Non-steroidal selective glucocorticoid receptor agonistic modulators (SEGRAMs) and uses thereof” (ASSOCIATION POUR LA RECHERCHE À L'IGBMC (ARI), priority 2017, dated 2021)
